# Assay results taken from ChEMBL document CHEMBL3046338, “Solid-Supported Parallel Synthesis of Hydroxybenzylamine Libraries Possessing Antileishmial Activity” (Med Chem Res, 2005).
# Experiments:
# Format in all cases: functional, organism-based
# Leishmania donovani = assay: Antileishmanial activity against Leishmania donovani promastigotes after 72 hr by alamar blue assay
# Plasmodium falciparum [1] = assay: Antimalarial activity against chloroquine-resistant Plasmodium falciparum W2 IndoChina after 48 hr by parasite LDH assay
# Plasmodium falciparum [2] = assay: Antimalarial activity against chloroquine-sensitive Plasmodium falciparum D6 SierraLeone after 48 hr by parasite LDH assay
structure (smiles),measurement,setting,value
COc1ccc(CN(Cc2ccc(Br)cc2)c2cccnc2)cc1O,EC50,Leishmania donovani,32.6 µM
COc1ccc(CN(CCc2ccccc2)c2cccnc2)cc1O,EC50,Leishmania donovani,18.5 µM
COc1ccc(CN(CCCc2ccccc2)c2cccnc2)cc1O,EC50,Leishmania donovani,15.8 µM
COc1ccc(CN(CCc2c[nH]c3ccccc23)Cc2ccccc2)cc1O,EC50,Leishmania donovani,9.31 µM
COc1ccc(CN(CCc2c[nH]c3ccccc23)Cc2ccc(Br)cc2)cc1O,EC50,Leishmania donovani,9.88 µM
COc1ccc(CN(CCc2ccccc2)CCc2c[nH]c3ccccc23)cc1O,EC50,Leishmania donovani,16.2 µM
COc1ccc(CN(CCCc2ccccc2)CCc2c[nH]c3ccccc23)cc1O,EC50,Leishmania donovani,9.89 µM
COc1ccc(N(Cc2ccc(C)cc2)Cc2ccc(OC)c(O)c2)cc1,EC50,Leishmania donovani,65.1 µM
COc1ccc(N(Cc2ccc(C(C)(C)C)cc2)Cc2ccc(OC)c(O)c2)cc1,EC50,Leishmania donovani,61.6 µM
COc1ccc(CN(Cc2ccc(OC)c(O)c2)c2ccc(OC)cc2)cc1,EC50,Leishmania donovani,71.2 µM
COc1ccc(CN(CCCN2CCOCC2)Cc2ccccc2)cc1O,EC50,Plasmodium falciparum [1],12.8 µM
same,EC50,Plasmodium falciparum [2],12.8 µM
COc1ccc(CN(CCCN2CCOCC2)Cc2ccc(Br)cc2)cc1O,EC50,Leishmania donovani,51.2 µM
same,EC50,Plasmodium falciparum [1],10.6 µM
same,EC50,Plasmodium falciparum [2],10.6 µM
COc1ccc(CN(CCc2ccccc2)CCc2ccc(Br)cc2)cc1O,EC50,Leishmania donovani,59 µM
COc1ccc(CN(CCCc2ccccc2)CCc2ccc(Br)cc2)cc1O,EC50,Leishmania donovani,28.6 µM
CCOC(=O)CCN(CCc1ccc(Br)cc1)Cc1ccc(OC)c(O)c1,EC50,Leishmania donovani,25.2 µM
CCOC(=O)CN(CCc1ccc(Br)cc1)Cc1ccc(OC)c(O)c1,EC50,Leishmania donovani,26.1 µM
COc1ccc(CN(CCc2ccc(Br)cc2)CC(=O)OC(C)(C)C)cc1O,EC50,Leishmania donovani,11.1 µM
CCOC(=O)CCCN(CCc1ccc(Br)cc1)Cc1ccc(OC)c(O)c1,EC50,Leishmania donovani,37.8 µM
CCCCN(CCc1ccc(Br)cc1)Cc1ccc(OC)c(O)c1,EC50,Leishmania donovani,125 µM
same,EC50,Plasmodium falciparum [1],7.14 µM
COc1ccc(CN(CCc2ccccc2)CCc2ccccc2)cc1O,EC50,Leishmania donovani,20.8 µM
COc1ccc(CN(CCCc2ccccc2)CCc2ccccc2)cc1O,EC50,Leishmania donovani,14.1 µM
COc1ccc(CN(CCc2ccccc2)CC(=O)OC(C)(C)C)cc1O,EC50,Leishmania donovani,33.6 µM
CCOC(=O)CCCN(CCc1ccccc1)Cc1ccc(OC)c(O)c1,EC50,Leishmania donovani,25.6 µM
COc1ccc(CN(Cc2ccccc2)c2cccnc2)cc1O,EC50,Leishmania donovani,53.1 µM
COc1ccc(CN(CCc2ccc(Br)cc2)Cc2ccc([N+](=O)[O-])cc2)cc1O,EC50,Leishmania donovani,46.7 µM
same,EC50,Plasmodium falciparum [2],9.55 µM
COc1ccc(CN(CCc2ccccc2)Cc2ccc(F)cc2)cc1O,EC50,Leishmania donovani,62.9 µM
COc1ccc(CN(CCc2ccccc2)Cc2cccc(Cl)c2)cc1O,EC50,Leishmania donovani,70.7 µM
COc1ccc(CN(CCc2ccccc2)Cc2ccc(Cl)cc2)cc1O,EC50,Leishmania donovani,68.1 µM
COc1ccc(CN(CCc2ccccc2)Cc2ccc(Cl)c(Cl)c2)cc1O,EC50,Leishmania donovani,50.4 µM
COc1ccc(CN(CCc2ccccc2)Cc2ccc(Cl)cc2Cl)cc1O,EC50,Leishmania donovani,60.1 µM
COc1ccc(CN(CCc2ccccc2)Cc2c(F)c(F)c(F)c(F)c2F)cc1O,EC50,Leishmania donovani,48 µM
COc1ccc(CN(CCc2ccc(Br)cc2)Cc2ccc(OC)c(O)c2)cc1,EC50,Leishmania donovani,32.9 µM
COc1ccc(CN(CCc2ccccc2)Cc2ccc(C)cc2)cc1O,EC50,Leishmania donovani,19.9 µM
COc1ccc(CN(CCc2ccccc2)Cc2ccc(C(C)(C)C)cc2)cc1O,EC50,Leishmania donovani,18.6 µM
COc1ccc(CN(CCc2ccccc2)Cc2ccc(OC)c(O)c2)cc1,EC50,Leishmania donovani,18.8 µM
COc1ccc(CN(Cc2ccccc2)c2cc(OC)c(OC)c(OC)c2)cc1O,EC50,Leishmania donovani,29.3 µM
COc1ccc(CN(Cc2ccc(Br)cc2)c2cc(OC)c(OC)c(OC)c2)cc1O,EC50,Leishmania donovani,45.1 µM
COc1ccc(N(Cc2ccccc2)Cc2ccc(OC)c(O)c2)cc1,EC50,Leishmania donovani,109 µM
COc1ccc(N(Cc2ccc(Br)cc2)Cc2ccc(OC)c(O)c2)cc1,EC50,Leishmania donovani,25.8 µM
same,EC50,Plasmodium falciparum [1],11.2 µM
same,EC50,Plasmodium falciparum [2],11.2 µM
COc1ccc(N(Cc2ccc(F)cc2)Cc2ccc(OC)c(O)c2)cc1,EC50,Leishmania donovani,84.4 µM
COc1ccc(N(Cc2ccc(Cl)cc2)Cc2ccc(OC)c(O)c2)cc1,EC50,Leishmania donovani,59.8 µM
COc1ccc(CN(CCc2ccc(Br)cc2)Cc2ccc(Cl)cc2Cl)cc1O,EC50,Leishmania donovani,48.5 µM
COc1ccc(CN(Cc2ccccc2)Cc2ccc(Br)cc2)cc1O,EC50,Leishmania donovani,31.5 µM
COc1ccc(CN(CCc2ccccc2)Cc2ccccc2)cc1O,EC50,Leishmania donovani,37.4 µM
COc1ccc(CCN(Cc2ccccc2)Cc2ccc(OC)c(O)c2)cc1,EC50,Leishmania donovani,50.3 µM
same,EC50,Plasmodium falciparum [1],12.6 µM
same,EC50,Plasmodium falciparum [2],12.6 µM
COc1ccc(CN(Cc2ccccc2)c2ccc(Br)cc2)cc1O,EC50,Leishmania donovani,70.3 µM
COc1ccc(CN(Cc2ccccc2)c2cccc(Cl)c2)cc1O,EC50,Leishmania donovani,39.6 µM
same,EC50,Plasmodium falciparum [1],13.5 µM
same,EC50,Plasmodium falciparum [2],13.5 µM
COc1ccc(CN(CCc2ccc(Br)cc2)Cc2ccccc2)cc1O,EC50,Leishmania donovani,11.8 µM
same,EC50,Plasmodium falciparum [1],11.2 µM
same,EC50,Plasmodium falciparum [2],6.58 µM
COc1ccc(CN(CCc2ccc(OC)c(OC)c2)Cc2ccccc2)cc1O,EC50,Leishmania donovani,54 µM
same,EC50,Plasmodium falciparum [1],11.7 µM
COc1ccc(CCN(Cc2ccc(Br)cc2)Cc2ccc(OC)c(O)c2)cc1,EC50,Leishmania donovani,21.9 µM
same,EC50,Plasmodium falciparum [1],10.4 µM
COc1ccc(CN(Cc2ccc(Br)cc2)c2ccc(Br)cc2)cc1O,EC50,Leishmania donovani,33.5 µM
COc1ccc(CN(Cc2ccc(Br)cc2)c2cccc(Cl)c2)cc1O,EC50,Leishmania donovani,64.7 µM
COc1ccc(CN(CCc2ccc(OC)c(OC)c2)Cc2ccc(Br)cc2)cc1O,EC50,Leishmania donovani,39.1 µM
same,EC50,Plasmodium falciparum [1],9.79 µM
COc1ccc(CN(CCc2ccc(Br)cc2)Cc2ccc(F)cc2)cc1O,EC50,Leishmania donovani,56.3 µM
COc1ccc(CN(CCc2ccc(Br)cc2)Cc2cccc(Cl)c2)cc1O,EC50,Leishmania donovani,45.6 µM
COc1ccc(CN(CCc2ccc(Br)cc2)Cc2ccc(Cl)cc2)cc1O,EC50,Leishmania donovani,54.2 µM
COc1ccc(CN(CCc2ccc(Br)cc2)Cc2ccc(Br)cc2)cc1O,EC50,Leishmania donovani,11.9 µM
same,EC50,Plasmodium falciparum [1],9.42 µM
same,EC50,Plasmodium falciparum [2],6.93 µM
COc1ccc(CN(CCc2ccc(Br)cc2)Cc2ccc(C)cc2)cc1O,EC50,Leishmania donovani,29.5 µM
COc1ccc(CN(CCc2ccc(Br)cc2)Cc2c(F)c(F)c(F)c(F)c2F)cc1O,EC50,Leishmania donovani,50.4 µM
COc1ccc(CN(CCc2ccc(Br)cc2)Cc2ccc(Cl)c(Cl)c2)cc1O,EC50,Leishmania donovani,48.5 µM
COc1ccc(CN(CCc2ccc(Br)cc2)Cc2ccc(C(C)(C)C)cc2)cc1O,EC50,Leishmania donovani,47.8 µM
C[C@@H]1[C@H](O)[C@@H](C)/C=C/C=C/C=C/C=C/C=C/C=C/C=C/[C@H](O[C@@H]2O[C@H](C)[C@@H](O)[C@H](N)[C@@H]2O)C[C@@H]2O[C@](O)(C[C@@H](O)C[C@@H](O)[C@H](O)CC[C@@H](O)C[C@@H](O)CC(=O)O[C@H]1C)C[C@H](O)[C@H]2C(=O)O [AMPHOTERICIN B],EC50,Leishmania donovani,0.01 µM
C[C@@H]1CC[C@H]2[C@@H](C)C(=O)O[C@@H]3O[C@@]4(C)CC[C@@H]1[C@]32OO4 [ARTEMISININ],EC50,Plasmodium falciparum [1],0.02 µM
same,EC50,Plasmodium falciparum [2],0.02 µM
CCN(CC)CCCC(C)Nc1ccnc2cc(Cl)ccc12 (centres undefined) [CHLOROQUINE],EC50,Plasmodium falciparum [1],0.31 µM
N=C(N)c1ccc(OCCCCCOc2ccc(C(=N)N)cc2)cc1 [PENTAMIDINE],EC50,Leishmania donovani,1.35 µM
